Measured values as given in patent US20240269298A1, “PHOSPHONYL DERIVATIVE, AND COMPOSITION AND PHARMACEUTICAL APPLICATION THEREOF” (XIZANG HAISCO PHARMACEUTICAL CO., LTD., priority 2021, published 2024).
Where two headings read alike, the source gives them in different places.

Key:
[1] = target: T1, EGFR protein in NCI-H1975 EGFR-L858R-T790M-C797S cells (Homo sapiens, UniProt P00533, C797S/L858R/T790M); assay: Degradation activity on EGFR protein in NCI-H1975 EGFR-L858R-T790M-C797S cells, Method II (western blot, 48 h); assay type: cell-based; conditions: 48 h incubation, EGFR protein relative to DMSO control
T1 construct: expressed in transfected cells; host or cells: NCI-H1975 EGFR-L858R-T790M-C797S (kept under hygromycin selection)
Experimental: (§1) Protein sample preparation: NCI-H1975 EGFR-L858R-T790M-C797S cells were cultured in an incubator at 37° C. with 5% CO2, and the culture medium was RPMI1640+10% FBS+100 μg/mL hygromycin. The cells in the logarithmic phase were collected, and the cell suspension was adjusted to an appropriate concentration with a hygromycin-free culture medium, plated on a 6-well plate at a density of 350000 cells/well and a volume of 2 mL, and cultured overnight in an incubator at 37° C. with 5% CO2. The next day, the compounds at different concentrations were added. DMSO control wells were provided, wherein the concentration of DMSO in all wells was 0.1%. The 6-well plate was cultured in an incubator at 37° C. with 5% CO2 for 48 h, and then 30 μL of RIPA lysates (Beyotime, Cat. P0013B) containing protease inhibitors (Beyotime, Cat. P0013B) were added. The mixtures were lysed on ice for 30 min. Centrifugation was carried out at 13000 rpm/min at 4° C. for 20 minutes to collect protein supernatant samples, and protein quantification was performed by the BCA method. Western Blot detection samples were prepared.
(§2) Western blot detection: 20 μg of protein samples were added to each well, subjected to polyacrylamide gel electrophoresis and transferred to a membrane, and then diluted anti-EGFR (CST, Cat. 4267S) and […] (Kangchen, Cat. KC-5G4) antibodies were added and incubated overnight at 4° C. After washing the membrane, diluted goat anti-rabbit (Licor, Cat. 926-32211) and goat anti-mouse (Licor, Cat. 926-68070) antibodies were added and incubated in the dark for 45 min. Scanning and detection at wavelengths of 700 nm and 800 nm were performed with a far-infrared imaging system (Odyssey).
(§3) According to formula (3), the expression level of EGFR protein in the cells relative to the DMSO control group was calculated after incubation with different concentrations of compounds. wherein EGFRcompound was the fluorescence value of EGFR protein after incubation with compounds, and EGFRvehicle was the fluorescence value of EGFR protein in the DMSO control group. Using the Origin 9.2 software, the drug concentration DC50 values when the expression level of EGFR protein was 50% relative to the DMSO control group were calculated.

[2] = test system: A431 (EGFR-WT) cells; assay: Inhibitory activity on proliferation of A431 (EGFR-WT) cells (CTG, 72 h); assay type: cell-based; conditions: Homo sapiens, A-431
In short: (§4)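 IC50 values come from S-shaped dose-survival fits of CTG signal expressed as % of vehicle. Compound exposure lasted 72 h at 37 °C with 0.1% DMSO; seeding was 3000 A431 cells/well in DMEM+10% FBS and 1000 NCI-H1975 cells/well in RPMI1640+10% FBS.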

[3] = test system: NCI-H1975 (EGFR-L858R-T790M) cells; assay: Inhibitory activity on proliferation of NCI-H1975 (EGFR-L858R-T790M) cells (CTG, 72 h); assay type: cell-based; conditions: Homo sapiens
In short: as §4

[4] = Pharmacokinetic test in mice; assay type: in vivo; conditions: male, ICR, mouse, po, administration i.g. (10 mg/kg), plasma
In short: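 Male ICR mice (20-25 g), fasted 12-14 h before dosing and fed 4 h after, received a single intravenous or intragastric dose. Orbital plasma sampled from 0 to 24 h (5 min-24 h points); LC-MS/MS quantitation for PK parameters and bioavailability.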

[5] = test system: NCI-H1975 EGFR-L858R-T790M-C797S cells; assay: Inhibitory activity on proliferation of NCI-H1975 EGFR-L858R-T790M-C797S cells (CellTiter-Glo, 72 h); assay type: cell-based; conditions: Homo sapiens
In short: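 Cells (1500/well) exposed to graded compound concentrations for 72 h at 37 °C in hygromycin-free RPMI1640 + 10% FBS, 0.1% DMSO vehicle. Viability by CellTiter-Glo luminescence relative to vehicle; IC50 from nonlinear sigmoidal dose-survival fit.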

[6] = target: T1, EGFR protein in NCI-H1975 EGFR-L858R-T790M-C797S cells; assay: Degradation activity on EGFR protein in NCI-H1975 EGFR-L858R-T790M-C797S cells, Method I (western blot, 72 h); assay type: cell-based; conditions: 72 h incubation, EGFR protein relative to DMSO control
Experimental: as §1, with “200000” for “350000”, “72” for “48”, “min” for “minutes”, “Samples for western blot” for “Western Blot”, “detection” for “detection samples”
as §2, §3

[7] = read-out: IC50 (value in brackets)

T1 sequence (P00533 25-1210 T790M/C797S/L858R): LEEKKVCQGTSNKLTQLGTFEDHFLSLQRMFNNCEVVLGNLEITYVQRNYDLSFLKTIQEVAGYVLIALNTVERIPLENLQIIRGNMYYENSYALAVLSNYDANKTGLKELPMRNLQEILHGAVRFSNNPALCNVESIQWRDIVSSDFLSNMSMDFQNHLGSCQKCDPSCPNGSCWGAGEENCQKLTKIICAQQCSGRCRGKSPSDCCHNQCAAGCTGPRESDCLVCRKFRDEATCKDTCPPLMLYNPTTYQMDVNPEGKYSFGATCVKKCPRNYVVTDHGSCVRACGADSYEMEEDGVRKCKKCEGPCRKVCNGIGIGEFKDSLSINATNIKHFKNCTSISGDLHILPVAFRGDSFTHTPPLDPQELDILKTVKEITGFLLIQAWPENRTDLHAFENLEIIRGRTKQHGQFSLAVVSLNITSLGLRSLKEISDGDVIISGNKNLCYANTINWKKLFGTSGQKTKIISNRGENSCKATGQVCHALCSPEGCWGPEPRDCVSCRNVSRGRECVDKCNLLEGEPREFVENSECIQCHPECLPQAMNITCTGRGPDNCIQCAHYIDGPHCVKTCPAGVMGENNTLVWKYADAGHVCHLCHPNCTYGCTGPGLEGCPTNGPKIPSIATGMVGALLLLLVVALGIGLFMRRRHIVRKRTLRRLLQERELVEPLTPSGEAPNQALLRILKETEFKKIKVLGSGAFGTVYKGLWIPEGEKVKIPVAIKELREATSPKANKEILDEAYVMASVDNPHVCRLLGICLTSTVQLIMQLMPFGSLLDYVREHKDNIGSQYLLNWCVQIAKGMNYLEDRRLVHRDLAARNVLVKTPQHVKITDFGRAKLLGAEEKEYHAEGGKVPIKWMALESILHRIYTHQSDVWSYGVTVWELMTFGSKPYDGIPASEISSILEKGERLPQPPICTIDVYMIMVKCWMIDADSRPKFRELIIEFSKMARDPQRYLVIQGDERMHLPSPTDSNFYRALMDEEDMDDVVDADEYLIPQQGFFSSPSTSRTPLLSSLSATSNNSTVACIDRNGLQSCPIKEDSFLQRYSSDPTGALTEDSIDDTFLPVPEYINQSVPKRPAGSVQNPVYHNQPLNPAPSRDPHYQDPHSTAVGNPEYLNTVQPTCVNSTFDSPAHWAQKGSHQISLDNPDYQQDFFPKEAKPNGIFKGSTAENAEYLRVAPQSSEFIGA

Row | SMILES | DC50 [1] | IC50 [2] | IC50 ([3]; read-out: IC50 (class symbol)) | IC50 [3, 7] | AUC [4] | half-life [4] | IC50 ([5]; read-out: IC50 (class symbol)) | IC50 ([5]; read-out: IC50 (value)) | AUC(0-t) [4] | DC50 [6]
1 | COc1cc(N2CCC(CN3CCN(c4ccc5c(c4)C(=O)N(C4CCC(=O)NC4=O)C5=O)CC3)CC2)c(-c2cnn(C)c2)cc1Nc1ncc(Cl)c(Nc2ccc(-c3ccccc3F)cc2P(C)(C)=O)n1 (stereo not drawn) [Compound 102, 5-(4-((1-(4-((5-chloro-4-((3-(dimethylphosphoryl)-2′-fluoro-[1,1′-biphenyl]-4-yl)amino)pyrimidin-2-yl)amino)-5-methoxy-2-(1-methyl-1H-pyrazol-4-yl)phenyl)piperidin-4-yl)methyl)piperazin-1-yl)-2-(2,6-dioxopiperidin-3-yl)isoindoline-1,3-dione] | < 100 nM | ≥ 10 µM | 100 to 500 nM | 150 nM | 87900 ng·h/mL | 569 min | < 200 nM | 152 nM |  | 
2 | COc1cc(N2CCN(C[C@@H]3CCN(c4ccc5c(c4)C(=O)N(C4CCC(=O)NC4=O)C5=O)C3)CC2)c(-c2cnn(C)c2)cc1Nc1ncc(Br)c(Nc2ccc(-c3ccccc3F)cc2P(C)(C)=O)n1 (stereo partly drawn) [Compound 116, 5-((S)-3-((4-(4-((5-bromo-4-((3-(dimethylphosphoryl)-2′-fluoro-[1,1′-biphenyl]-4-yl)amino)pyrimidin-2-yl)amino)-5-methoxy-2-(1-methyl-1H-pyrazol-4-yl)phenyl)piperazin-1-yl)methyl)pyrrolidin-1-yl)-2-(2,6-dioxopiperidin-3-yl)isoindoline-1,3-dione] | < 100 nM | ≥ 10 µM | < 100 nM | 94 nM |  |  |  |  |  | 
3 | COc1cc(N2CCN(C[C@H]3CCN(c4ccc5c(c4)C(=O)N(C4CCC(=O)NC4=O)C5=O)C3)CC2)c(-c2cnn(C)c2)cc1Nc1ncc(Br)c(Nc2ccc(-c3ccccc3F)cc2P(C)(C)=O)n1 (stereo partly drawn) [Compound 117, 5-((R)-3-((4-(4-((5-bromo-4-((3-(dimethylphosphoryl)-2′-fluoro-[1,1′-biphenyl]-4-yl)amino)pyrimidin-2-yl)amino)-5-methoxy-2-(1-methyl-1H-pyrazol-4-yl)phenyl)piperazin-1-yl)methyl)pyrrolidin-1-yl)-2-(2,6-dioxopiperidin-3-yl)isoindoline-1,3-dione] | < 100 nM | ≥ 10 µM | < 100 nM | 51 nM |  |  | < 200 nM | 79 nM | 101000 ng·h/mL | 
4 | COc1cc(N2CCC(CN3CCN(c4ccc5c(c4)C(=O)N(C4CCC(=O)NC4=O)C5=O)CC3)CC2)c(-c2cnn(C)c2)cc1Nc1ncc(Cl)c(Nc2ccccc2P(C)(C)=O)n1 (stereo not drawn) [Compound 109, 5-(4-((1-(4-((5-chloro-4-((2-(dimethylphosphoryl)phenyl)amino)pyrimidin-2-yl)amino)-5-methoxy-2-(1-methyl-1H-pyrazol-4-yl)phenyl)piperidin-4-yl)methyl)piperazin-1-yl)-2-(2,6-dioxopiperidin-3-yl)isoindoline-1,3-dione] | < 100 nM | ≥ 10 µM | < 100 nM | 52 nM | 81500 ng·h/mL | 272 min |  |  |  | 
5 | COc1cc(N2CCC(N3CCN(c4ccc5c(c4)C(=O)N(C4CCC(=O)NC4=O)C5=O)CC3)CC2)c(-c2cnn(C)c2)cc1Nc1ncc(Cl)c(Nc2ccc(C3CC3)cc2P(C)(C)=O)n1 (stereo not drawn) [Compound 113, 5-(4-(1-(4-((5-chloro-4-((4-cyclopropyl-2-(dimethylphosphoryl)phenyl)amino)pyrimidin-2-yl)amino)-5-methoxy-2-(1-methyl-1H-pyrazol-4-yl)phenyl)piperidin-4-yl)piperazin-1-yl)-2-(2,6-dioxopiperidin-3-yl)isoindoline-1,3-dione] | < 100 nM | ≥ 10 µM | < 100 nM | 68 nM |  |  |  |  |  | 
6 | COc1cc(N2CCC(N3CCN(c4ccc5c(c4)C(=O)N(C4CCC(=O)NC4=O)C5=O)CC3)CC2)c(-c2cnn(C)c2)cc1Nc1ncc(Br)c(Nc2ccc(C3CC3)cc2P(C)(C)=O)n1 (stereo not drawn) [Compound 112, 5-(4-(1-(4-((5-bromo-4-((4-cyclopropyl-2-(dimethylphosphoryl)phenyl)amino)pyrimidin-2-yl)amino)-5-methoxy-2-(1-methyl-1H-pyrazol-4-yl)phenyl)piperidin-4-yl)piperazin-1-yl)-2-(2,6-dioxopiperidin-3-yl)isoindoline-1,3-dione] | < 100 nM | ≥ 10 µM | < 100 nM | 83 nM |  |  | < 200 nM | 127 nM |  | 
7 | COc1cc(N2CCC(CN3CCN(c4ccc5c(c4)C(=O)N(C4CCC(=O)NC4=O)C5=O)CC3)CC2)c(-c2cnn(C)c2)cc1Nc1ncc(Br)c(Nc2ccccc2P(C)(C)=O)n1 (stereo not drawn) [Compound 108, 5-(4-((1-(4-((5-bromo-4-((2-(dimethylphosphoryl)phenyl)amino)pyrimidin-2-yl)amino)-5-methoxy-2-(1-methyl-1H-pyrazol-4-yl)phenyl)piperidin-4-yl)methyl)piperazin-1-yl)-2-(2,6-dioxopiperidin-3-yl)isoindoline-1,3-dione] | < 100 nM | ≥ 10 µM | < 100 nM | 42 nM | 71000 ng·h/mL | 290 min | < 200 nM | 135 nM |  | 
8 | COc1cc(N2CCN(C3CCN(c4ccc5c(c4)C(=O)N(C4CCC(=O)NC4=O)C5=O)CC3)CC2)c(-c2cnn(C)c2)cc1Nc1ncc(Br)c(Nc2ccc(-c3ccccc3)cc2P(C)(C)=O)n1 (stereo not drawn) [Compound 99, 5-(4-(4-(4-((5-bromo-4-((3-(dimethylphosphoryl)-[1,1′-biphenyl]-4-yl)amino)pyrimidin-2-yl)amino)-5-methoxy-2-(1-methyl-1H-pyrazol-4-yl)phenyl)piperazin-1-yl)piperidin-1-yl)-2-(2,6-dioxopiperidin-3-yl)isoindoline-1,3-dione] |  | ≥ 10 µM | < 100 nM | 33 nM |  |  | < 200 nM | 57 nM | 25000 ng·h/mL | < 100 nM
9 | COc1cc(N2CCC(N3CCC4(CCN(c5ccc6c(c5)C(=O)N(C5CCC(=O)NC5=O)C6=O)CC4)CC3)CC2)c(-c2cnn(C)c2)cc1Nc1ncc(Br)c(Nc2ccc(-c3ccccc3)cc2P(C)(C)=O)n1 (stereo not drawn) [Compound 84, 5-(9-(1-(4-((5-bromo-4-((3-(dimethylphosphoryl)-[1,1′-biphenyl]-4-yl)amino)pyrimidin-2-yl)amino)-5-methoxy-2-(1-methyl-1H-pyrazol-4-yl)phenyl)piperidin-4-yl)-3,9-diazaspiro[5.5]undecan-3-yl)-2-(2,6-dioxopiperidin-3-yl)isoindoline-1,3-dione] |  | ≥ 10 µM | < 100 nM | 43 nM |  |  | < 200 nM | 47 nM | 4570 ng·h/mL | < 100 nM
